From PubChem BioAssay (NCI)
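All cell lines were grown in 96-well plates and treated with compound for 48 hours. TGI marks complete inhibition of growth.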

System: P388 leukemia
Assay: NCI tumour cell line growth inhibition, 48 h

Structure (SMILES): CC1=C(C(=O)Nc2ccc(Cl)c(C(=O)OC(C)C)c2)SCCO1
- TGI: 54.2 µM
